Patent US20050095240A1, “NaCT as a target for lifespan expansion and weight reduction” (Medical College of Georgia Research, priority 2002, published 2005)

What was measured:
ceNaCT = molecular target: T1, ceNaCT (Caenorhabditis elegans, UniProt P32739, I91S/L182M); assay: ceNaCT in X. laevis oocytes: uptake and two-electrode voltage clamp; format: cell-based
T1 sequence (P32739 1-551 I91S/L182M): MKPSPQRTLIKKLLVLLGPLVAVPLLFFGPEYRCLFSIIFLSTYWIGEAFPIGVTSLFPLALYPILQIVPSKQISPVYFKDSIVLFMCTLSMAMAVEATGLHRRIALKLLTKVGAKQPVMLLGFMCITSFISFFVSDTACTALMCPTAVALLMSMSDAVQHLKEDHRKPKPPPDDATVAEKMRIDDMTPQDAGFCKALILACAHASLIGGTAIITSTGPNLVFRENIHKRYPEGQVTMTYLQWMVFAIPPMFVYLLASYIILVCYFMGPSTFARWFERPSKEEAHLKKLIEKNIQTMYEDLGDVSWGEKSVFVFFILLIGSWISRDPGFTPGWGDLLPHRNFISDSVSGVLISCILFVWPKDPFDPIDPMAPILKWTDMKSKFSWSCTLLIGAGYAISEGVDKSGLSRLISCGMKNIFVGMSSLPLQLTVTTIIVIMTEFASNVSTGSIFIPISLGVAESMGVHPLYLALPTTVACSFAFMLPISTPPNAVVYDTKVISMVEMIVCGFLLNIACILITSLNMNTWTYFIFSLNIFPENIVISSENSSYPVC
Text: Electrophysiological studies of ceNaCT transport activity. Initially, ceNaCT cRNA prepared from the pSPORT-ceNaCT cDNA construct was used for functional expression of the transporter in X. laevis oocytes. These initial attempts were unsuccessful. Therefore, a X. laevis oocyte expression vector was used. The coding sequence of ceNaCT cDNA was amplified by PCR using the following primers: 5′-[…]-3′ (SEQ ID NO:23) (forward primer) and 5′-[…]-3′ (SEQ ID NO:24) (reverse primer). The forward primer contained the start codon and also an Xma I site introduced at the 5′-end for the purpose of subcloning. The reverse primer contained the termination codon and also a BamH I site at the 5′end for the purpose of subcloning. The PCR-derived ceNaCT coding fragment was then inserted into the Xma I/BamH I site in the oocyte expression vector pGHl9.

[1] = molecular target: Phe→Leu mutant of human NaCT (Homo sapiens, UniProt Q86YT5, F500L); assay: Citrate uptake via Phe→Leu mutant of human NaCT in HRPE cells; format: cell-based
hNaDC3 = molecular target: T2, hNaDC3 (Homo sapiens, UniProt Q8WWT9)
T2 sequence (Q8WWT9 1-602): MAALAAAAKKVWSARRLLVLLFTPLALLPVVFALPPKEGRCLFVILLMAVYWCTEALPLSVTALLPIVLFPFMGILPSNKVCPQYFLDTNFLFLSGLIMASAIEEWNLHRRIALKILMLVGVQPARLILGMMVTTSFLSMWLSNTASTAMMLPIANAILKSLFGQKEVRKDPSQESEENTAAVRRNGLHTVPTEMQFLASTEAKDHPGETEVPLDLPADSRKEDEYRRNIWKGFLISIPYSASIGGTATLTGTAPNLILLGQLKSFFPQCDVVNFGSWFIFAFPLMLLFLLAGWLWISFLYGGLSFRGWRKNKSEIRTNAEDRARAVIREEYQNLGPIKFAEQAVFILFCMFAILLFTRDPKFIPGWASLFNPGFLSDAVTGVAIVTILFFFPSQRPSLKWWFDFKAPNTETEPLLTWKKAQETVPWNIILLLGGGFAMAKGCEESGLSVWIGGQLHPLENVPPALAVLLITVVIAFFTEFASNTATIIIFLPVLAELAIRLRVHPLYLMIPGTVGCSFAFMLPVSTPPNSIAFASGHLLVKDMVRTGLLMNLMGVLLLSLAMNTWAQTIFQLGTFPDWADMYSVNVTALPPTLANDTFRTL

drIndy [2] = molecular target: T3, drIndy (Drosophila melanogaster, UniProt Q9VVT2); assay: cell-based
drIndy [3] = molecular target: T3, drIndy; conditions: succinate 0.1 μM
NaDC3 = conditions: cited from earlier work
rat NaDC3 = molecular target: T4, rat NaDC3 (Rattus norvegicus, UniProt Q9Z0Z5); conditions: medium with 135 μM citrate and 40 μM succinate
T4 sequence (Q9Z0Z5 1-600): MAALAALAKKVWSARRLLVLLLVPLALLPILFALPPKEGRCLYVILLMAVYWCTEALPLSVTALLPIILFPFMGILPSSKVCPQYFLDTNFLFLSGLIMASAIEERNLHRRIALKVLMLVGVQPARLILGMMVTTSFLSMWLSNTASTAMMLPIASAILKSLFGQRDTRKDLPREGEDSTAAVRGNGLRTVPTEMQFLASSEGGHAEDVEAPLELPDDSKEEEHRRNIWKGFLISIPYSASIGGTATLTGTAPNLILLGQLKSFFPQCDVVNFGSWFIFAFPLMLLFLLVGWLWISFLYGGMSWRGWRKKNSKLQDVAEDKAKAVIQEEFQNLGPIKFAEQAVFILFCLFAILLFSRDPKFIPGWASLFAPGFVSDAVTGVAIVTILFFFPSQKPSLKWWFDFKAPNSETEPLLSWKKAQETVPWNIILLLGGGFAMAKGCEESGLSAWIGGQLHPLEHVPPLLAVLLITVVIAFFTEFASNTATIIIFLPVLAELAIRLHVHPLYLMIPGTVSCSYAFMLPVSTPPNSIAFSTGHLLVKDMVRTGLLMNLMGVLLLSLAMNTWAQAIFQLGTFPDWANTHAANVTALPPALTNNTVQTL

T3 sequence (Q9VVT2 19-590): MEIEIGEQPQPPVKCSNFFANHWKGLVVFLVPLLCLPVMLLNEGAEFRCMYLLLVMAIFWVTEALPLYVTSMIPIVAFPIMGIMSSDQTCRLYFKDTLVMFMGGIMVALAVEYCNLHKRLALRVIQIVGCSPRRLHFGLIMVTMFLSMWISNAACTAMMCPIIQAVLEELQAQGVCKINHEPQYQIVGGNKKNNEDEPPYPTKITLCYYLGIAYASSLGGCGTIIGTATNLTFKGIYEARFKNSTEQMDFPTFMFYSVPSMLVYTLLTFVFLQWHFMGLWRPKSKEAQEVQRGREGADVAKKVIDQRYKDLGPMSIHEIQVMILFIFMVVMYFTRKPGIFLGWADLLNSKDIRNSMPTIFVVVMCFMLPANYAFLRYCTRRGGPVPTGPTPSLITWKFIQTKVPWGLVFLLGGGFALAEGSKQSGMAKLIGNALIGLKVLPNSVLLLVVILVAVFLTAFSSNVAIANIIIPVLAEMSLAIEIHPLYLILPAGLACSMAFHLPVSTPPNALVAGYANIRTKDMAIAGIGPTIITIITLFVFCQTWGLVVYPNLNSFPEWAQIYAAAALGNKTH
Phe→Leu mutant of human NaCT, sequence (Q86YT5 whole entry F500L): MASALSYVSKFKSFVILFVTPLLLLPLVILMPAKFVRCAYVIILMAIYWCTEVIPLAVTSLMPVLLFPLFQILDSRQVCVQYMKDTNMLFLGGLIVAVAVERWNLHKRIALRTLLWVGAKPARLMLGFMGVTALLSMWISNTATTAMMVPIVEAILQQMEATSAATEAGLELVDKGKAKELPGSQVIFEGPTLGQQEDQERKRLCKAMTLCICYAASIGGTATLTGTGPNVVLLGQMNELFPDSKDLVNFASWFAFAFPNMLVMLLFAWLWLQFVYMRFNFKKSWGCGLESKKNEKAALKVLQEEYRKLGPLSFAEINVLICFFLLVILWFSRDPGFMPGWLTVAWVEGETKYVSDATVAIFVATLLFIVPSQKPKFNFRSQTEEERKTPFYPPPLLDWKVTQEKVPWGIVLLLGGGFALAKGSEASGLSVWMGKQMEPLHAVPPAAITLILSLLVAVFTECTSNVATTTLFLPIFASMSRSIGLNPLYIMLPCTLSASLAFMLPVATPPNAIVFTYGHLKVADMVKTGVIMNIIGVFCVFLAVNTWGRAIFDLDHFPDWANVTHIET

Row | SMILES | Uptake in cRNA-injected vs water-injected oocytes (ceNaCT; citrate 40 μM, pH 6.5) | Uptake of [^14C]citrate in ceNaCT cRNA-injected oocytes (ceNaCT; citrate 40 μM, pH 6.5) | pH-dependent stimulation, pH 7.5 to 6.5 (ceNaCT; citrate 250 μM) | Maximal current (Imax) (ceNaCT; testing membrane potential −50 mV) | K0.5, concentration of citrate for half-maximal current (ceNaCT; testing membrane potential −70 mV, pH 6.5) | Maximal current (Imax) (ceNaCT; testing membrane potential −150 mV) | Increase in substrate affinity of mutant vs wild type [1] | Kt for citrate, Phe→Leu mutant [1] | Lower affinity of hNaDC3 than drIndy for citrate (hNaDC3) | Ki (drIndy [2]) | Uptake of radiolabelled succinate in drIndy cRNA-injected vs water-injected oocytes (drIndy [3]) | Michaelis-Menten constant for succinate, NaDC3 (NaDC3) | Uptake in hNaDC3 cDNA-transfected cells vs vector (hNaDC3; succinate 40 nM, presence of Na+) | Succinate uptake at physiological concentrations (rat NaDC3)
1 | O=C(O)CC(O)(CC(=O)O)C(=O)O [Citrate] | about 45 fold | 12.9±0.8 pmol/oocyte/15 min | about 1.25 fold | 12.3±0.6 nA | 34 ± 8 µM | 61.1±2.6 nA | 7 fold | 78 ± 8 µM | 20 fold | 105 ± 35 µM |  |  |  | 
2 | O=C(O)CCC(=O)O [Succinate, succinate] |  |  |  |  |  |  |  |  |  |  | 12 fold | 2 to 50 µM | 200 fold | 0.48±0.01 nmol/10^6 cells/minute
